Source: the supplement of paper PMC10326909

Experiment: ESI positive response factor (isotope-corrected peak area per molar concentration) in SFC/ESI/HRMS (area units per M); higher = higher ionization efficiency
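Also: standards in acetonitrile/water run in triplicate on a zwitterionic HILIC column, CO2–methanol gradient containing 20 mmol/L ammonium acetate, postcolumn makeup flow, Orbitrap full-scan detection.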

Structure (SMILES) | ESI positive response factor (0.0875 µM) | ESI positive response factor (0.35 µM) | ESI positive response factor (0.875 µM) | ESI positive response factor (0.0175 µM) | ESI positive response factor (0.035 µM) | ESI positive response factor (0.175 µM) | further results
CN1C(C)(C)CC(O)CC1(C)C [1,2,2,6,6-Pentamethyl-4-piperidinol] | 5.02e+17 | 4.69e+17 | 4.18e+17 | 4.91e+17 | 5.26e+17 | 4.63e+17 | ESI positive response factor (1.75 µM): 3.68e+17
CN1CCN(C)C1=O [1,3-Dimethyl-2-imidazolidinone] | 6.75e+16 | – | – | 6.51e+16 | 7.85e+16 | 6.53e+16 | –
Cn1cnc2c1c(=O)n(CCCC(=O)O)c(=O)n2C [1-(3-Carboxypropyl)-3,7-dimethyl-xanthin] | 2.2e+16 | 2.34e+16 | 2.22e+16 | 1.77e+16 | 2.12e+16 | 2e+16 | –
CC(O)CN(CCO)CCO (stereo unspecified) [1-[N,N-Bis(2-hydroxyethyl)amino]-2-propanol] | 3.24e+17 | 2.94e+17 | – | 2.91e+17 | 3.14e+17 | 2.77e+17 | –
c1ccc2[nH]nnc2c1 [1H-Benzotriazol] | 1.11e+16 | 1.37e+16 | – | – | 7.96e+15 | 1.18e+16 | –
CC1(C)CC(O)CC(C)(C)N1 [2,2,6,6-Tetramethyl-4-piperidinol] | 1.53e+17 | 1.58e+17 | – | 1.95e+17 | 1.78e+17 | 1.47e+17 | –
Nc1nc(N)c2nc(CO)cnc2n1 [2,4-Diamino-6-(hydroxymethyl)pteridine] | 4.27e+16 | 3.92e+16 | 4.05e+16 | 2.75e+16 | 4.33e+16 | 3.56e+16 | –
NC(=O)c1c(Cl)cccc1Cl [2,6-Dichlorbenzamid] | 2.14e+16 | 2.46e+16 | 2.38e+16 | – | 1.78e+16 | 2.26e+16 | –
CCCCCC(C)N (stereo unspecified) [2-Aminoheptane] | 1.47e+16 | – | – | – | 1.87e+16 | – | –
Nc1ccccn1 [2-Aminopyridine] | 1.55e+16 | 1.73e+16 | – | – | 1.33e+16 | 1.48e+16 | –
OCC[C@@H]1CCCC[NH2+]1 [2-Piperidineethanol] | – | – | – | – | – | – | ESI positive response factor (0.0122 µM): 1.24e+17; ESI positive response factor (0.0244 µM): 1.22e+17; ESI positive response factor (0.061 µM): 9.77e+16; ESI positive response factor (0.122 µM): 1.07e+17; ESI positive response factor (0.244 µM): 1.07e+17
O=C1CCCN1 [2-Pyrrolidinone] | – | 8.52e+15 | 1.07e+16 | – | – | 8.26e+15 | ESI positive response factor (1.75 µM): 8.7e+15
C[NH2+]C[C@H](O)CO [3-Methylamino-1,2-propanediol] | – | – | – | – | – | – | ESI positive response factor (0.0122 µM): 7.17e+16; ESI positive response factor (0.0244 µM): 4.4e+16; ESI positive response factor (0.061 µM): 6.78e+16; ESI positive response factor (0.122 µM): 6.39e+16; ESI positive response factor (0.244 µM): 7.28e+16; ESI positive response factor (0.61 µM): 6.66e+16
Cc1cc(=O)oc2cc(O)ccc12 [4-Methylumbelliferone] | – | – | – | – | – | – | ESI positive response factor (0.0122 µM): 7.52e+16; ESI positive response factor (0.0244 µM): 8.88e+16; ESI positive response factor (0.061 µM): 7.61e+16; ESI positive response factor (0.122 µM): 7.61e+16; ESI positive response factor (0.244 µM): 7.56e+16
COC(=O)C1=CCCN(C)C1 [Arecolin] | 4.13e+17 | 3.77e+17 | – | 4.44e+17 | 4.27e+17 | 3.78e+17 | –
COC(=O)NS(=O)(=O)c1ccc(N)cc1 [Asulam] | 1.31e+16 | 1.46e+16 | 1.49e+16 | – | 1.24e+16 | 1.29e+16 | ESI positive response factor (1.75 µM): 1.43e+16
CCNc1nc(Cl)nc(NC(C)C)n1 [Atrazine] | 9.8e+17 | – | – | 1.04e+18 | 1.07e+18 | 9.03e+17 | –
COP(=O)(OC)SCn1c(=O)oc2cc(Cl)cnc21 [Azamethiphos] | 6.44e+17 | – | – | 6.62e+17 | 7.29e+17 | 6.11e+17 | –
COc1ccc(O)c(C(C)(C)C)c1 [Butylated hydroxyanisole] | 3.78e+15 | 3.32e+15 | 3.01e+15 | – | – | 2.82e+15 | –
CNC(=O)Oc1cccc2c1OC(C)(C)C2 [Carbofuran] | 8.68e+16 | 9.93e+16 | – | 8.85e+16 | 8.12e+16 | 7.6e+16 | –
CC1=C(C(=O)Nc2ccccc2)SCCO1 [Carboxin] | 1.07e+17 | 1.1e+17 | – | 7.6e+16 | 1.1e+17 | 9.93e+16 | –
CON(C)C(=O)Nc1ccc(Br)c(Cl)c1 [Chlorbromuron] | 4.82e+16 | 5.21e+16 | – | – | 4.74e+16 | 4.62e+16 | –

Now from value to compound, other results behind:

ESI positive response factor (0.0875 µM) | ESI positive response factor (0.35 µM) | ESI positive response factor (0.875 µM) | ESI positive response factor (0.0175 µM) | ESI positive response factor (0.035 µM) | ESI positive response factor (0.175 µM) | Structure (SMILES) | further results
1.56e+15 | 6.42e+15 | 6.4e+15 | – | – | – | CC(=O)N1CC(O)C[C@H]1C(=O)O (stereo in doubt) [Trans-1-acetyl-4-hydroxy-L-prolin] | ESI positive response factor (1.75 µM): 6.39e+15
– | 5.75e+15 | 5.13e+15 | – | – | 4.79e+15 | c1ccc(CC2=NCCN2)cc1 [2-Benzylimidazoline] | ESI positive response factor (1.75 µM): 4.96e+15
– | 1.94e+16 | – | – | – | 2.01e+16 | CCCCC(CC)CN (stereo unspecified) [2-Ethyl-1-hexylamine] | –
7.22e+14 | 3.87e+15 | 4.7e+15 | – | – | – | O=S(=O)(O)c1ccc2nc(-c3ccccc3)[nH]c2c1 [2-Phenyl-5-benzimidazole] | ESI positive response factor (1.75 µM): 4.96e+15
1.92e+17 | 3.23e+17 | 4.13e+17 | 4.89e+17 | – | 3.18e+17 | C1CN(CCOCCN2CCOCC2)CCO1 [4,4'-(Oxydi-2,1-ethanediyl)bismorpholine] | ESI positive response factor (1.75 µM): 3.43e+17
– | – | – | 1.78e+16 | 2.97e+16 | – | O=c1ccnc[nH]1 [4-Pyrimidinol] | –
8.08e+14 | 2.17e+15 | 2.09e+15 | – | – | – | Cn1c(N)c(NC=O)c(=O)n(C)c1=O [6-Amino-1,3dimethyl-5-(formylamino)uracil] | ESI positive response factor (1.75 µM): 2.18e+15
1.85e+16 | 1.71e+16 | – | – | 1.46e+16 | 1.59e+16 | C#C[C@]1(O)CC[C@H]2[C@@H]3CCc4cc(O)ccc4[C@H]3CC[C@@]21C [17-Alpha-Ethinylestradiol] | –
– | 3.14e+15 | 3.18e+15 | – | – | 3.1e+15 | CC(=O)NCCCS(=O)(=O)O [Acamprosate] | ESI positive response factor (1.75 µM): 3.25e+15
4.18e+16 | 4.29e+16 | – | 3.61e+16 | 4.56e+16 | 3.74e+16 | CC(=O)Nc1ccc(O)cc1 [Acetaminophen] | –
2.4e+17 | 2.13e+17 | – | 2.2e+17 | 1.98e+17 | 2.16e+17 | CC(=O)OCC[N+](C)(C)C [Acetylcholine] | –
1.26e+17 | – | – | – | 1.46e+17 | – | Nc1ncnc2c1ncn2C1OC(CO)C(O)C1O (stereo unspecified) [Adenosine] | –
3.69e+17 | 4.54e+17 | – | – | 4.1e+17 | 4.36e+17 | CN(C)CCC=C1c2ccccc2CCc2ccccc21 [Amitriptyline] | –
1.82e+17 | 1.8e+17 | – | 1.75e+17 | 1.81e+17 | 1.75e+17 | CC(C)NCC(O)COc1ccc(CC(N)=O)cc1 (stereo unspecified) [Atenolol] | –
1.52e+16 | 1.55e+16 | – | – | 1.45e+16 | 1.36e+16 | O=c1[nH]sc2ccccc12 [Benzisothiazolinone] | –
1.14e+17 | – | – | 1.5e+17 | 1.36e+17 | – | C[N+](C)(C)CC(=O)O [Betaine] | –
9.48e+17 | – | – | 8.07e+17 | 8.73e+17 | 9.83e+17 | CCCCC(CC)CNCC(CC)CCCC (stereo unspecified) [Bis(2-ethylhexyl)amine] | –
1.65e+17 | 1.6e+17 | – | 1.43e+17 | 1.76e+17 | 1.64e+17 | CC(C)NCC(O)COc1ccc(C(=O)O)cc1 (stereo unspecified) [Bisoprolol-M3] | –
1.25e+17 | 1.25e+17 | – | 1.27e+17 | 1.3e+17 | 1.16e+17 | CCC[C@@H]1O[C@@H]2C[C@H]3[C@@H]4CCC5=CC(=O)C=C[C@]5(C)[C@H]4[C@@H](O)C[C@]3(C)[C@]2(C(=O)CO)O1 [Budesonid] | –
2.03e+17 | – | – | 2.34e+17 | 2.22e+17 | – | Cn1c(=O)c2c(ncn2C)n(C)c1=O [Caffeine] | –
8.12e+16 | 8.92e+16 | 9.01e+16 | 5.17e+16 | 8.14e+16 | 8.2e+16 | CCOc1nc2cccc(C(=O)O)c2n1Cc1ccc(-c2ccccc2-c2nnn[nH]2)cc1 [Candesartan] | ESI positive response factor (1.75 µM): 8.46e+16
6.85e+16 | 6.45e+16 | – | 5.72e+16 | 7.07e+16 | 6.12e+16 | CCNC(=O)[C@H](C)OC(=O)Nc1ccccc1 [Carbetamid] | –
